Reference: patent publication US6521736B2, “Amphiphilic polymeric materials” (priority 2000, dated 2003)

Assays:
[1] = Encapsulation of small molecules in PEG-1500-DMOI micelles, determined by UV spectroscopy; assay type: physicochemical; conditions: for loading of complexed drug: complexed with PEG-1500-DMOI from 4:1 chloroform/methanol, taken up in water, UV
Protocol: Benzo[a]Pyrene (BP), a dye and potent carcinogen, was chosen as a hydrophobic model because BP encapsulation within aqueous micelles of the PEG-1500-DMOI polymer can be monitored by UV absorption spectroscopy. The amount of dye encapsulated in the micelles was readily determined by UV spectroscopy since an absorbance signal due to benzo[a]pyrene appeared in the 340-450 nm region only when the dye was solubilized within the aqueous micelle. Different concentrations of dye were prepared in dichloromethane and each was added to a constant amount of polymeric micelle solution (1 ml of 100 mg/ml). Polymer-dye complex films were cast on glass and dried under vacuum at room temperature overnight. The films were then removed and redissolved in water by sonication at 35° C. for 10 minutes, and purified by filtration from excess dye. A homogenous, stable solution of the dye was formed at concentrations of more than 0.25 wt %, indicating partitioning of the dye into the micellar core. The maximum loading capacity of the dye was 0.88% (w/w). […] A partition coefficient of 5×10^4 was determined, indicating strong partitioning.
In other experiments using this encapsulation method, PEG-1500-DMOI was complexed with either camptothecin or etoposide by combining the polymer and drug in a 4:1 chloroform/methanol mixture, then evaporating the resulting mixture overnight at room temperature under vacuum. The residue was treated with 5 ml water and filtered to remove any uncomplexed camptothecin. The solution was then examined with UV spectroscopy to determine the amount of complexed drug.

HIVLAI = conditions: unencapsulated drug; cited from earlier work
mammalian cell cultures = assay: Cell growth, morphology and viability (XTT dye) in mammalian cell cultures; assay type: cell-based; conditions: 1 mM extracellular unencapsulated drug
Protocol: […] At higher concentrations (e.g., 30 μM), loss of cell viability was seen. Host cell translation was monitored by the expression of inducible β-galactosidase activity; cell viability was monitored spectrophotometrically using XTT dye.

CD4+HeLa cells = conditions: non-encapsulated drug; cited from earlier work
HIV-1 Rev = conditions: CD4+HeLa cells, non-encapsulated drug; cited from earlier work
[2] = in aqueous PEG-1500-DMOI micelles

With `c1ccc2c(c1)cc1ccc3cccc4ccc2c1c34` [Benzo[a]Pyrene] the partition coefficient [1] was 5×10^4, the “dye concentration at which a homogenous, stable solution was formed” value [1, 2] was “more than 0.25 wt %” and the “maximum loading capacity of the dye” value [1, 2] was 0.88 % (w/w).

In the case of `CC[C@@]1(O)C(=O)OCc2c1cc1n(c2=O)Cc2cc3ccccc3nc2-1` [camptothecin], the “loading of complexed drug” value [1] is reported as 1.25 % (w/w).

In the case of `COc1cc([C@@H]2c3cc4c(cc3[C@@H](O[C@@H]3O[C@@H]5CO[C@@H](C)O[C@H]5[C@H](O)[C@H]3O)[C@H]3COC(=O)[C@H]23)OCO4)cc(OC)c1O` [etoposide], the “loading of complexed drug” value [1] is reported as 3.1 % (w/w).

For `NC[C@@H]1O[C@H](O[C@H]2[C@@H](O)[C@H](O[C@@H]3[C@@H](O)[C@H](N)C[C@H](N)[C@H]3O[C@H]3O[C@H](CN)[C@@H](O)[C@H](O)[C@H]3N)O[C@@H]2CO)[C@H](N)[C@@H](O)[C@@H]1O` [unencapsulated neomycin B, neomycin B], the “concentration that inhibits HIV production, previously reported” value (HIVLAI) is given as 2,500-5,000 μM.

With `C=C(NC(=O)C(=C)NC(=O)c1csc(C2=N[C@@H]3c4csc(n4)[C@H]4NC(=O)c5csc(n5)[C@H]([C@](C)(O)[C@@H](C)O)NC(=O)[C@H]5CSC(=N5)/C(=C/C)NC(=O)[C@H]([C@@H](C)O)NC(=O)c5csc(n5)[C@]3(CC2)NC(=O)[C@H](C)NC(=O)C(=C)NC(=O)[C@H](C)NC(=O)[C@H]([C@@H](C)CC)N[C@@H]2C=Cc3c([C@H](C)O)cc(nc3[C@H]2O)C(=O)O[C@@H]4C)n1)C(N)=O` [unencapsulated thiostrepton, thiostrepton] the “effect on cell growth or cell morphology” value (mammalian cell cultures) was “no detectable effect”.

In the case of “kazugamycin [non-encapsulated kazugamycin]”, the “concentration at which decreased cell proliferation and necrosis occur” value (CD4+HeLa cells) is given as 35 µM and the “concentration that blocks HIV-1 Rev function” value (HIV-1 Rev) is given as 25 µM.
